US9879006B2, “Azaindole acetic acid derivatives and their use as prostaglandin D2 receptor modulators” (IDORSIA PHARMACEUTICALS LTD, priority 2014, dated 2018)

Experiments:
[1] = test system: primary cultured rat hepatocytes; test: In vitro cytotoxicity in primary cultured rat hepatocytes; type: cell-based; details: 24 h treatment, cell morphology and LDH leakage, highest test concentration 300 μM; for LCC (lowest cytotoxic concentration): 300s = only slight cytotoxicity at 300 μM
Source text: In Vitro Cytotoxicity in Primary Cultured Rat Hepatocytes
Adult male Wistar rats were narcotized with sodium pentobarbital and hepatocytes were isolated according to a standard procedure, i.e. by in situ perfusion of the liver with a collagenase solution. The viability of the purified hepatocytes, checked by the trypan blue dye exclusion method was greater than 85%. The isolated hepatocytes were resuspended in standard Williams Medium E, without phenol red, supplemented (WME supp.) with transferrin (100 μg/ml), triiodothyronine (10 μg/ml), gentamicin (50 μg/ml), hydrocortison hemisuccinate (13.36 μg/ml), glucagon (5 μg/ml), HEPES (10 mM), inosin (10 μg/ml), insulin (10 μg/ml), streptomycin (100 μg/ml) and penicillin (100 U/ml) and 10% fetal bovine serum (FBS). The cells were plated in collagen-coated 24-well plates at an initial density of 2×10^5 cells/well. After 4 h for attachment to the culture-plates, the medium was aspirated and replaced by fresh WME supp. without FBS containing the test compounds and incubated for 24 h at 37° C. in a […] and 5% CO2 atmosphere. For each experiment, i.e., with each batch of hepatocytes, treatments with the test compounds were done in quadriplicate. Quadriplicate controls (treatment with the vehicle only) were also present on each culture plate.
Stock solutions of the test compounds were prepared in DMSO a few hours before treatment start. Appropriate dilutions of these stock solutions were added to the culture media just prior to the treatment in order to give final concentrations of 0, 3, 10, 30, 100 and 300 μM. The final concentration of the vehicle DMSO was 1% (v/v).
The morphology of the hepatocyte monolayers was monitored by light microscopy after 24 hours of exposure to the test compounds. Treatment related effects are described according to the following grading: • 0 No morphological alterations observed upon treatment when compared to the control cultures • 1-3 Treatment resulting in any morphological changes, e.g. intracellular granulation, vacuolization or cell death. Depending on the severity, these changes were regarded as slight (1), moderate (2) or strong (3). • K Treatment resulting in 100% dead cells and/or the complete detachment of the monolayer yielding a clear cell-free dish.
After 24 h treatment of the hepatocyte cultures, aliquots of culture medium were carefully collected and used for the analysis of lactate dehydrogenase (LDH) activity by spectrophotometry using the LDH cytotoxicity detection kit from Clontech (cat No. 630117, Mountain View, Calif., USA). For each experiment, additional cultures were used for the determination of total intracellular LDH activity at treatment start. For this purpose, 4 wells of cell culture per experiment were washed with cold saline before treatment start, sonicated in fresh medium and the homogenate was analyzed for total LDH activity. Enzyme activities in the culture media were assessed and expressed as percentage of the total activity present in the cultured hepatocytes at the beginning of the treatments.
The lowest cytotoxic concentration (LCC) and the no effect concentration (NoEC) are given for each compound, based on cell morphology and LDH leakage after 24 h treatment. LCC is defined as the lowest concentration of the test compound leading to a clear effect on the cultured rat hepatocytes (morphology grading≧2 or ≧2-fold increase in LDH leakage). A LCC value of >300 μM indicates the absence of effect on both endpoints at the highest test concentration of 300 μM. […] NoEC is defined as the highest test concentration of the compound which was without an effect on the cultured rat hepatocytes (morphology and LDH leakage).

hCRTH2 receptor [2] = target: T1, hCRTH2 receptor (Homo sapiens, UniProt Q9Y5Y4); test: hCRTH2 receptor membranes radioligand displacement assay; details: displacement of 3H-PGD2 (2.5 nM), HEK293-hCRTH2 membrane fragments, Binding-Buffer with 0.1% BSA
T1 construct: expressed in transfected cells; host or cells: HEK293 (recombinant HEK293-hCRTH2), membrane fragments
T1 sequence (Q9Y5Y4 1-395): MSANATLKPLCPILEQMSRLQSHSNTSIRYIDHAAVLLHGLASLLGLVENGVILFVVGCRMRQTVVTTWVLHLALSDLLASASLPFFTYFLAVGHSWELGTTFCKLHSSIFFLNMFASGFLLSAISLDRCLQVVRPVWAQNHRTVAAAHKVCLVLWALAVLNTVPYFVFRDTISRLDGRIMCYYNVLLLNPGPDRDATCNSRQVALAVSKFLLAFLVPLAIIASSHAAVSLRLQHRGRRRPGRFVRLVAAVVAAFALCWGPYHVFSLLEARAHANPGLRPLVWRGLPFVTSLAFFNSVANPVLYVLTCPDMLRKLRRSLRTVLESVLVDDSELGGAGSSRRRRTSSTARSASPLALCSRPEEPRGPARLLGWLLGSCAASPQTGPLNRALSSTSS
Method: Preparation of hCRTH2 Receptor Membranes and Radioligand Displacement Assay:
(§1) First, recombinant HEK293-hCRTH2 cells were detached from culture plates into 5 ml buffer A/plate (Buffer A: 5 mM Tris, 1 mM MgCl2-6H2O pH=7.4) using a rubber policeman. Cells were then transferred into centrifugation tubes and centrifuged for 5 min at 400 g. The cell pellet was resuspended in the same buffer and tubes were frozen at 80° C. Cells were thawed and membrane fragments were generated by homogenization using a polytron homogenizer (30 seconds). The membrane fragments were then centrifuged at 3000 g for 20 minutes and resuspended in buffer C (Buffer C: 75 mM Tris, 25 mM MgCl2, 250 mM Saccharose pH 7.4). Aliquots of membrane fragments were stored at −20° C.
(§2) Binding assay was performed in a final assay volume of 250 μl. First, 25 μl of test compound, previously diluted in Binding-Buffer (Binding-Buffer: 50 mM Tris-Base, 100 mM NaCl, 1 mM EDTA, 0.1% BSA (protease free), 0.01% NaN3, 10 mM MnCl2 pH 7.0) was placed into each well. After addition of 75 μl Binding-Buffer, 50 μl of the radioligand ^3H-PGD2 (at 2.5 nM (220.000 dpm/well) from ANAWA ART0662) was added to each well. Binding assay was started by addition of 100 μl CRTH2 membrane fragments, reaching a final concentration of 20 μg/well. For non-specific binding, PGD2 was added to the reaction mixture to […] final concentration. This assay mix was incubated for 90 minutes at room temperature and then filtered through a GF/C filter 96-well plate which was pre-soaked for 3 hours in 0.5% polyethyleneimine (PEI). The filter-wells were washed three times with ice cold Binding-Buffer. Then, 40 μl of Microscint-40 (Packard) was added to each well and the retained radioactivity quantified in a Topcount (Packard).

[3] = test system: eosinophils (PGD2-induced shape change); test: Eosinophil shape change assay with human plasma; type: cell-based; details: human polymorphonuclear cells, 50% human plasma, activated with PGD2 100 nM, flow cytometry forward-scatter
Method: Eosinophil Shape Change Assay with Human Plasma
After obtaining informed consent, blood samples were drawn by venipuncture according to the protocol approved by the ethics committee of Basel, Switzerland. Polymorphonuclear leukocytes (containing eosinophils, basophils and neutrophils) were isolated using the Polymorphprep™ method (Axis-Shield). In brief, anticoagulated whole blood was layered onto a Polymorphprep gradient (density 1.113 g/ml) and centrifuged at 500 g for 30 min. The polymorphonuclear cell fraction was harvested and depleted for erythrocytes by hypotonic saline lysis.
The polymorphonuclear cells were resuspended in assay buffer (1×PBS with Ca^2+/Mg^2+ supplemented with 0.1% BSA, 10 mM HEPES, and 10 mM Glucose, pH 7.4) at 5×10^6 cells/ml and stained with anti-CD49d-APC ((APC=Allophycocyanin) for 1 hour at RT. Test compounds, at various concentrations, were preincubated 10 min in human plasma (anticoagulated with a thrombin inhibitor). Then, human plasma was added to the polymorphonuclear cells to 50% of final assay volume with polymorphonuclear cells at 4×10^6 cells/ml. After incubation for 10 minutes at 37° C., the polymorphonuclear cells were activated for 5 min at 37° C. by addition of PGD2 at 100 nM final concentration. Activation was stopped by addition of 0.5 ml paraformaldehyde (1%).
Immediately after fixation with paraformaldehyde, the samples were analyzed by FACSCanto flow cytometer (BD Biosciences) and target cells were identified by their forward-scatter (FSC) and side-scatter (SSC) characteristics. Eosinophils were identified by the anti-CD49d-APC signal and their characteristic side-scatter (SSC) profile. Shape change responses, indicative of eosinophil activation, were quantified as the percent of cells with an increased forward-scatter.

hCRTH2 receptor [4] = target: T1, hCRTH2 receptor; test: Radioligand displacement assay in presence of human serum albumin (HSA); details: displacement of 3H-PGD2, Binding-Buffer with 0.5% human serum albumin instead of 0.1% BSA
Method: as §1, §2
Radioligand Displacement Assay-Human Serum Albumin (HSA):
Radioligand displacement assay in presence of human serum albumin (HSA) was performed as described above, with following modifications. Binding-Buffer-HSA: Binding-buffer+0.5% Sigma Albumin from Human serum A1887 (instead of 0.1% BSA). A volume of 25 μl test compound, previously diluted in Binding-Buffer-HSA was placed into each well. After addition of 75 μl Binding-Buffer-HSA, 50 μl of ^3H-PGD2 (at 2.5 nM (220.000 dpm/well) from ANAWA ART0662) was added to each well. Remaining protocol was identical as described above.

SMILES | NoEC (no effect concentration) [1] [µM] | LCC (lowest cytotoxic concentration) [1] | IC50 (hCRTH2 receptor [2]) [nM] | IC50 [3] [nM] | IC50 (hCRTH2 receptor [4]) [nM]
CN(c1ncc(Cl)cn1)[C@H]1CCc2c(c3cc(F)ccc3n2CC(=O)O)C1 | 30 | 300 µM | – | – | –
Cc1ccc2c(n1)c1c(n2CC(=O)O)CCC(N(C)c2ncc(Cl)cn2)C1 (stereo not drawn) [Example 1, 2-(8-((5-chloropyrimidin-2-yl)(methyl)amino)-2-methyl-6,7,8,9-tetrahydro-5H-pyrido[3,2-b]indol-5-yl)acetic acid] | – | – | 1.9 | 71 | 3.9
CN(c1ncc(Cl)cn1)C1CCc2c(c3nc(F)ccc3n2CC(=O)O)C1 (stereo not drawn) [Example 2, 2-(8-((5-chloropyrimidin-2-yl)(methyl)amino)-2-fluoro-6,7,8,9-tetrahydro-5H-pyrido[3,2-b]indol-5-yl)acetic acid] | – | – | 3.1 | 4.2 | 2.3
COc1ccc2c(n1)c1c(n2CC(=O)O)CCC(N(C)c2ncc(Cl)cn2)C1 (stereo not drawn) [Example 3, 2-(8-((5-chloropyrimidin-2-yl)(methyl)amino)-2-methoxy-6,7,8,9-tetrahydro-5H-pyrido[3,2-b]indol-5-yl)acetic acid] | – | – | 13 | 148 | 13
CN(c1ncc(Cl)cn1)C1CCc2c(c3nc(C(F)(F)F)ccc3n2CC(=O)O)C1 (stereo not drawn) [Example 4, 2-(8-((5-chloropyrimidin-2-yl)(methyl)amino)-2-(trifluoromethyl)-6,7,8,9-tetrahydro-5H-pyrido[3,2-b]indol-5-yl)acetic acid] | – | – | 10 | 417 | 16
O=C(O)Cn1c2c(c3ncccc31)CC(Nc1ncc(Cl)cn1)CC2 (stereo not drawn) [Example 5, 2-(8-((5-chloropyrimidin-2-yl)-amino)-6,7,8,9-tetrahydro-5H-pyrido[3,2-b]indol-5-yl)acetic acid] | – | – | 19 | 88 | 22
CN(c1ncc(Cl)cn1)[C@H]1CCc2c(c3ncccc3n2CC(=O)O)C1 [Example 6, (S)-2-(8-((5-chloropyrimidin-2-yl)(methyl)amino)-6,7,8,9-tetrahydro-5H-pyrido[3,2-b]indol-5-yl)acetic acid] | – | – | 2.3 | 5.8 | 2.1
CN(c1ncc(Cl)cn1)[C@H]1CCc2c(c3nc(F)ccc3n2CC(=O)O)C1 [Example 7, (S)-2-(8-((5-chloropyrimidin-2-yl)(methyl)amino)-2-fluoro-6,7,8,9-tetrahydro-5H-pyrido[3,2-b]indol-5-yl)acetic acid] | – | – | 5.6 | 3.1 | 5
Cc1ccc2c(n1)c1c(n2CC(=O)O)CCC(N(C)c2ncc(Cl)cn2)C1 (stereo not drawn) [drawing 27] | >300 | >300 µM | – | – | –
CN(c1ncc(Cl)cn1)C1CCc2c(c3nc(F)ccc3n2CC(=O)O)C1 (stereo not drawn) [drawing 28] | >300 | >300 µM | – | – | –
COc1ccc2c(n1)c1c(n2CC(=O)O)CCC(N(C)c2ncc(Cl)cn2)C1 (stereo not drawn) [drawing 29] | 100 | 300 s | – | – | –
CN(c1ncc(Cl)cn1)C1CCc2c(c3nc(C(F)(F)F)ccc3n2CC(=O)O)C1 (stereo not drawn) [drawing 30] | 100 | 300 s | – | – | –
CN(c1ncc(Cl)cn1)[C@H]1CCc2c(c3ncccc3n2CC(=O)O)C1 [drawing 31] | >300 | >300 µM | – | – | –
CN(c1ncc(Cl)cn1)[C@H]1CCc2c(c3ncccc3n2CC(=O)O)C1 [drawing 32] | 30 | 300 µM | – | – | –
CN(c1ncc(Cl)cn1)[C@H]1CCc2c(c3nc(F)ccc3n2CC(=O)O)C1 [drawing 33] | >300 | >300 µM | – | – | –
O=C(O)Cn1c2c(c3nc(F)ccc31)C[C@@H](Nc1ncc(Cl)cn1)CC2 [drawing 35] | >300 | >300 µM | – | – | –
